# Reference: patent US5525595A, “3- or 4-glycosyloxybenzopyran derivative and antiallergic agent containing the derivative as active ingredient” (priority 1993, dated 1996)
# Columns and labels:
# [1] = test system: airway resistance in experimental asthma model; experiment: Effect on experimental asthma model in guinea pigs; format: in vivo, guinea pigs (Male hadley); settings: Cavia porcellus, Table 7; for inhibition in vivo at 100 mg/kg: 100 mg/kg oral, OVA challenge, guinea pigs
# In short: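 Male Hartley guinea pigs sensitized i.p. with 5 mg ovalbumin three times weekly, challenged 2 weeks later by 1 min inhalation of 1% OVA. Compounds dosed orally at 100 mg/kg in 0.5% CMCNa; airway resistance recorded 30 min, inhibition % from maximum resistance versus vehicle (n=5).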
# [2] = background statement; cited from earlier work
# [3] = test system: homologous passive cutaneous anaphylaxis (PCA) reaction; experiment: Effect on homologous passive cutaneous anaphylaxis (PCA) reaction in rats; format: in vivo, rats (Male wistar rats); settings: Rattus norvegicus, 0.5 h; 100 mg/kg oral, 1 hour before antigen, rats; Table 3
# In short: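 Male Wistar rats (9 weeks) sensitized intradermally with anti-TNP-ascaris serum; 48 h later compounds dosed orally at 100 mg/kg in 0.5% CMCNa, n=5 per group. Challenge 1 h post-dose with i.v. TNP-As plus Evans Blue; blue-spot diameter measured at 30 min, inhibition calculated versus vehicle group.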
# [4] = test system: contact dermatitis induced by picryl chloride; experiment: Effect on contact dermatitis induced by picryl chloride in mice (delayed type hypersensitization); format: in vivo; settings: Mus musculus; 100 mg/kg oral, ear thickness 24 hours after challenge; Table 6; read-out: Inhibition (%) against the increase of ear thickness
# In short: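 Mice sensitized on abdomen with 7 mg picryl chloride, ear-challenged 7 days later with 1% picryl chloride; compounds dosed orally at 100 mg/kg in 0.5% CMCNa 1 h before and 16 h after challenge.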
Compound,"inhibition in vivo at 20 mg/kg ([1]; iv, positive control DSCG 20 mg/kg injected into the vein) [%]",gastrointestinal absorbability [2],inhibition in vivo at 100 mg/kg [1] [%],inhibition in vivo at 100 mg/kg [3] [%],inhibition in vivo at 100 mg/kg [4] [%]
"O=C(O)c1cc(=O)c2c(OCC(O)COc3cccc4oc(C(=O)O)cc(=O)c34)cccc2o1 [DSCG, reference compound]",50.5,extremely poor,,,
CCCCOc1ccc2c(O[C@H]3O[C@H](CO)[C@@H](O)[C@H](O)[C@@H]3O)c(OC(C)=O)c(=O)oc2c1 [compound 88],,,43.5,45.8,40.2
"COc1ccc2c(OCc3ccccc3)c(O[C@@H]3O[C@H](COC(C)=O)[C@@H](OC(C)=O)[C@H](OC(C)=O)[C@H]3OC(C)=O)c(=O)oc2c1 [compound 3, 7-methoxy-4-benzyloxy-3-(tetra-O-acetyl-β-D-glucopyranosyloxy)-2H-1-benzopyran-2-one]",,,40,43.5,40.5
CC(C)=CCC/C(C)=C/COc1ccc2c(O)c(O[C@@H]3O[C@H](CO)[C@@H](O)[C@H](O)[C@H]3O)c(=O)oc2c1 [compound 20],,,72.4,57.2,56.2
CCCCCCCCCCCCOc1ccc2c(O[C@@H]3O[C@H](CO)[C@H](O)[C@H](O)[C@H]3O)c(O)c(=O)oc2c1 [compound 96],,,73.1,56.6,57.8
O=c1oc2cc(O)ccc2c(O)c1O[C@@H]1O[C@H](CO)[C@H](O)[C@H](O)[C@H]1O [compound 32],,,54.8,43.2,48.1
"COc1ccc2c(O)c(O[C@@H]3O[C@H](COC(C)=O)[C@@H](OC(C)=O)[C@H](OC(C)=O)[C@H]3OC(C)=O)c(=O)oc2c1 [compound 4, 7-methoxy-4-hydroxy-3-(tetra-O-acety-β-D-glucopyranosyloxy)-2H-1-benzopyran-2-one]",,,48.3,40.2,46.3
CCC=CCCOc1ccc2c(O)c(O[C@@H]3O[C@H](CO)[C@@H](O)[C@H](O)[C@H]3O)c(=O)oc2c1 [compound 19],,,73.1,56.8,57.4
O=C(Oc1ccc2c(O[C@H]3O[C@H](CO)[C@@H](O)[C@H](O)[C@@H]3O)c(O)c(=O)oc2c1)c1ccccc1 [compound 86],,,41.2,43,39.1
CCCCOc1ccc2c(O)c(O[C@@H]3O[C@H](CO)[C@H](O)[C@H](O)[C@H]3O)c(=O)oc2c1 [compound 33],,,68.1,57.2,62.5
CCC=CCCOc1ccc2c(O)c(O[C@H]3O[C@H](CO)[C@@H](O)[C@H](O)[C@@H]3O)c(=O)oc2c1 [compound 28],,,57.2,53.4,50.3
CCCCOc1ccc2c(O)c(O[C@H]3O[C@H](CO)[C@@H](O)[C@H](O)[C@@H]3O)c(=O)oc2c1 [compound 24],,,58.3,54.3,52.6
CC(=O)Oc1ccc2c(O)c(O[C@H]3O[C@H](CO)[C@@H](O)[C@H](O)[C@@H]3O)c(=O)oc2c1 [compound 45],,,46.5,46.3,46.3
CCC=CCCOc1ccc2c(O)c(O[C@@H]3O[C@H](CO)[C@H](O)[C@H](O)[C@H]3O)c(=O)oc2c1 [compound 37],,,72.4,59.5,58.3
COc1ccc2c(O[C@H]3O[C@H](CO)[C@@H](O)[C@H](O)[C@@H]3O)c(O)c(=O)oc2c1 [compound 78],,,50.8,46.2,43.1
"COc1ccc2c(O)c(O[C@@H]3O[C@H](CO)[C@H](O)[C@H](O)[C@H]3O)c(=O)oc2c1 [compound 11, 7-methoxy-4-hydroxy-3-(β-D-galactopyranosyloxy)-2H-1-benzopyran-2-one]",,,63.3,52.1,53.3
CC(=O)Oc1ccc2c(O[C@H]3O[C@H](CO)[C@@H](O)[C@H](O)[C@@H]3O)c(O)c(=O)oc2c1 [compound 106],,,46.2,42.2,40.1
CCCCCCCCOc1ccc2c(O)c(O[C@H]3O[C@H](CO)[C@@H](O)[C@H](O)[C@@H]3O)c(=O)oc2c1 [compound 25],,,68.6,50.9,57.3
CC(=O)Oc1ccc2c(O[C@@H]3O[C@H](CO)[C@@H](O)[C@H](O)[C@H]3O)c(O)c(=O)oc2c1 [compound 116],,,55.3,48,45.1
